Values quoted from earlier work as cited in patent publication US6555228B2, “Bio-supportive medium, and methods of making and using the same” (priority 2000, dated 2003).

Columns and labels:
[1] = system: Thalassiosira weissflogii; details: very low concentrations
Torla (=Candida) utilis = details: pH 7, simple form
several dinoflagelates = details: until organic chelation occurs
[2] = system: Barnacles and zebra mussels
Ophyotrocha Labronica = details: 0.1 mg L^−1 of copper
[3] = system: other classes of organisms
Artemia salina = details: 1.0 mg L^−1 of copper

[Zn+2] [zinc]
effect of zinc ion activity on growth [1]: growth limiting effect

[Cu+2] [copper]
lethal dose (some species): 10 ppm
amount of copper toxic to Torla (=Candida) utilis (Torla (=Candida) utilis): 20 mg
generally available copper with no measurable negative effect (most habitats): below 0.62 mg/l
effect of copper on dinoflagelates (several dinoflagelates): inhibit
tolerance of copper [2]: can not tolerate any copper
growth rate of Ophyotrocha Labronica (Ophyotrocha Labronica): decreased significantly
concentration at which biolimiting occurs [3]: ≥ 40 ppm
growth rate of Artemia salina (Artemia salina): no change
